Test results reported in US8580525B2, “Methods of screening for LTRPC7 modulators” (The Queen's Medical Center, priority 2000, dated 2013).

Key:
Wild type HEK-293 = experiment: ATP-dependent endogenous currents, whole-cell patch-clamp; type: cell-based, human; conditions: 6 mM ATP in pipette solution
Experimental: (§1) For patch-clamp experiments, cells grown on glass coverslips were transferred to the recording chamber and kept in a standard modified Ringer's solution of the following composition (in mM): NaCl 145, KCl 2.8, CsCl 10, CaCl2 1, MgCl2 2, glucose 10, Hepes.NaOH 10, pH 7.2. In some experiments, nominally Ca^2+ and/or Mg^2+-free extracellular solutions or isotonic Ca^2+ solutions (120 mM CaCl2) were applied by pressure ejection from wide-tipped pipettes. Intracellular pipette-filling solutions contained (in mM): Cs-glutamate 145, NaCl 8, MgCl2 1, Cs-BAPTA 10, pH 7.2 adjusted with CsOH. In some experiments, Cs-glutamate was replaced equimolarly by K-glutamate or N-methyl-D-glucamine-chloride. Patch-clamp experiments were performed in the tight-seal whole-cell configuration at 21-25° C. High-resolution current recordings were acquired by a computer-based patch-clamp amplifier system (EPC-9, HEKA, Lambrecht, Germany). Sylgard-coated patch pipettes had resistances between 2-4 M after filling with the standard intracellular solution. […] Capacitive currents and series resistance were determined and corrected before each voltage ramp using the automatic capacitance compensation of the EPC-9. […]

LTRPC7 = target: T1, LTRPC7 (Mus musculus, UniProt Q923J1); experiment: Intracellular perfusion with ATP, whole-cell patch-clamp of recombinant LTRPC7; type: cell-based
T1 construct: expressed in transfected cells
T1 sequence (Q923J1 2-1863 limits assumed): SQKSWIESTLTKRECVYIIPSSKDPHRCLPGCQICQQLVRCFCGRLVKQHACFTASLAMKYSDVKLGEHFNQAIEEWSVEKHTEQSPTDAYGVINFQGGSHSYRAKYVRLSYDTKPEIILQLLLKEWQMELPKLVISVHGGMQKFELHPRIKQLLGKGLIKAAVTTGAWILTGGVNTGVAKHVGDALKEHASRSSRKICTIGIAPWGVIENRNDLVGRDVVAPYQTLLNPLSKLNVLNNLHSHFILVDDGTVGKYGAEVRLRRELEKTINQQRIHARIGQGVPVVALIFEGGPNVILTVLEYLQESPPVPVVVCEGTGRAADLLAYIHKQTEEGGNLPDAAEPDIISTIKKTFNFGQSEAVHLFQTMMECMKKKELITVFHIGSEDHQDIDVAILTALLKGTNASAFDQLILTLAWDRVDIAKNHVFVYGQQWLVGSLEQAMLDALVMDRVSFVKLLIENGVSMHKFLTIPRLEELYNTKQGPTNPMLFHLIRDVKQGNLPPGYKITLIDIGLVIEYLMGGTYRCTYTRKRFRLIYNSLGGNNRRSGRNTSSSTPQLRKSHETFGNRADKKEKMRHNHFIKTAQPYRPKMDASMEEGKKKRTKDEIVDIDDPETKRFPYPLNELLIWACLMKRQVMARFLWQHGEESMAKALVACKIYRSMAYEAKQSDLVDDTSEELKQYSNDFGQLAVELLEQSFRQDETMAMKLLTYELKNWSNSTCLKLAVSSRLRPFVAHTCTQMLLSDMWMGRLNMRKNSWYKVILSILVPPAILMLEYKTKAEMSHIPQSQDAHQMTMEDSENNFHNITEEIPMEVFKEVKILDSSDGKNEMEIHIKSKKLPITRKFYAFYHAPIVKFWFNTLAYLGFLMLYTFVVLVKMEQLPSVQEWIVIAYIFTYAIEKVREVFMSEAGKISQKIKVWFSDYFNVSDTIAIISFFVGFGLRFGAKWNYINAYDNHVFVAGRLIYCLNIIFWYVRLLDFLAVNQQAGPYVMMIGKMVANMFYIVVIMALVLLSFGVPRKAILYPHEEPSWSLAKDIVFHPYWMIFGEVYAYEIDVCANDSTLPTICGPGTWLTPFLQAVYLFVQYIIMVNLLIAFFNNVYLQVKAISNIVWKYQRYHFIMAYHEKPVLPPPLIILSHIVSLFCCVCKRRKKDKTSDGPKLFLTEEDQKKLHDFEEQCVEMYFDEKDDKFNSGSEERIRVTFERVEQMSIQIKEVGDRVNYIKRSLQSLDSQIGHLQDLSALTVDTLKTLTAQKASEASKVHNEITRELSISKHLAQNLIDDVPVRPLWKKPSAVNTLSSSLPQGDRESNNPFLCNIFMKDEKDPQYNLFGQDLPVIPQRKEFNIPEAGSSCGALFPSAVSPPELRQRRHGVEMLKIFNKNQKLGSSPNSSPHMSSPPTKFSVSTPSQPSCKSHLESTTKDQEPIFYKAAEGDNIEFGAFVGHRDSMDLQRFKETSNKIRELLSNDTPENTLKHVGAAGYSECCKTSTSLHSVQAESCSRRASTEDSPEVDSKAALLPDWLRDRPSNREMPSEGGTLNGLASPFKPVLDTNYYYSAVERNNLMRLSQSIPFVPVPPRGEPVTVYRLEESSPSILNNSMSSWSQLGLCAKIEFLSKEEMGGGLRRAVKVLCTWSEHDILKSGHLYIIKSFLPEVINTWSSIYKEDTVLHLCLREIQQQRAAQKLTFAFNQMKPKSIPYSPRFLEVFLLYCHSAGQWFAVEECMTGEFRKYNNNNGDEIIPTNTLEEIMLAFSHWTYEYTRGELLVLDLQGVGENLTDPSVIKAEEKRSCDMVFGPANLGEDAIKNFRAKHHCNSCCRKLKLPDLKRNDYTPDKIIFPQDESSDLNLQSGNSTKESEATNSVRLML
Experimental: For patch-clamp experiments, cells grown on glass coverslips were transferred to the recording chamber and kept in a standard modified Ringer's solution of the following composition (in mM): NaCl 145, KCl 2.8, CsCl 10, CaCl2 1, MgCl2 2, glucose 10, Hepes.NaOH 10, pH 7.2. In some experiments, nominally Ca^2+ and/or Mg^2+-free extracellular solutions or isotonic Ca^2+ solutions (120 mM CaCl2) were applied by pressure ejection from wide-tipped pipettes. Intracellular pipette-filling solutions contained (in mM): Cs-glutamate 145, NaCl 8, MgCl2 1, Cs-BAPTA 10, pH 7.2 adjusted with CsOH. In some experiments, Cs-glutamate was replaced equimolarly by K-glutamate or N-methyl-D-glucamine-chloride. Patch-clamp experiments were performed in the tight-seal whole-cell configuration at 21-25° C. High-resolution current recordings were acquired by a computer-based patch-clamp amplifier system (EPC-9, HEKA, Lambrecht, Germany). Sylgard-coated patch pipettes had resistances between 2-4 M after filling with the standard intracellular solution. Immediately following establishment of the whole-cell configuration, voltage ramps of 50 ms duration spanning the voltage range of −100 to +100 mV were delivered from a holding potential of 0 mV at a rate of 0.5 Hz over a period of 200 to 400 seconds. All voltages were corrected for a liquid junction potential of 10 mV between external and internal solutions when internal solutions contained glutamate. Currents were filtered at 2.3 kHz and digitized at 100 μs intervals. Capacitive currents and series resistance were determined and corrected before each voltage ramp using the automatic capacitance compensation of the EPC-9. The low-resolution temporal development of currents at a given potential was extracted from individual ramp current records by measuring the current amplitudes at voltages of −80 mV or +80 mV.

RBL-2H3 = experiment: ATP-dependent endogenous currents, whole-cell patch-clamp; type: cell-based; conditions: 6 mM ATP in pipette solution
Experimental: as §1

Jurkat T-lymphocytes = experiment: as above; type: cell-based; conditions: 6 mM ATP in pipette solution
Experimental: as §1

Nc1ncnc2c1ncn2[C@@H]1O[C@H](COP(=O)(O)OP(=O)(O)OP(=O)(O)O)[C@@H](O)[C@H]1O [ATP]
outwardly rectifying cationic conductance (Wild type HEK-293): absent | change of maximum outward current after whole-cell establishment (LTRPC7; 6 mM ATP in pipette, +80 mV, 300 s): currents are actually decreasing after break-in | intracellular concentration that causes the LTRPC7 channel to close (LTRPC7; intracellular ATP): 6-10 millimolar | intracellular concentration that causes the LTRPC7 channel to reopen (LTRPC7; intracellular ATP): 0-4 millimolar | outwardly rectifying cationic conductance (RBL-2H3): absent | outwardly rectifying cationic conductance (Jurkat T-lymphocytes): absent
